Several values for one entry are separate records, joined by “and”; a condition that tells them apart may be missing. Identical values can stand only once.

In assay [1] the target is T1, TRPV1 (Rattus norvegicus, UniProt O35433). Put plainly: capsaicin-induced 45Ca2+-uptake in primary rat embryonic DRG cultures. It is filed as cell-based. Set-up: sensory neurons, expressing TRPV1 endogenously; endogenous in cells; host or cells: primary cultures of embryonic rat dorsal root ganglia (E14, E16). The protocol: Primary cultures were prepared from embryonic (E14) rat DRGs. Along with calmidazolium other polycyclic compounds were included in the vanilloid-induced ^45Ca^2+-transport assays.
T1 sequence (O35433 whole entry): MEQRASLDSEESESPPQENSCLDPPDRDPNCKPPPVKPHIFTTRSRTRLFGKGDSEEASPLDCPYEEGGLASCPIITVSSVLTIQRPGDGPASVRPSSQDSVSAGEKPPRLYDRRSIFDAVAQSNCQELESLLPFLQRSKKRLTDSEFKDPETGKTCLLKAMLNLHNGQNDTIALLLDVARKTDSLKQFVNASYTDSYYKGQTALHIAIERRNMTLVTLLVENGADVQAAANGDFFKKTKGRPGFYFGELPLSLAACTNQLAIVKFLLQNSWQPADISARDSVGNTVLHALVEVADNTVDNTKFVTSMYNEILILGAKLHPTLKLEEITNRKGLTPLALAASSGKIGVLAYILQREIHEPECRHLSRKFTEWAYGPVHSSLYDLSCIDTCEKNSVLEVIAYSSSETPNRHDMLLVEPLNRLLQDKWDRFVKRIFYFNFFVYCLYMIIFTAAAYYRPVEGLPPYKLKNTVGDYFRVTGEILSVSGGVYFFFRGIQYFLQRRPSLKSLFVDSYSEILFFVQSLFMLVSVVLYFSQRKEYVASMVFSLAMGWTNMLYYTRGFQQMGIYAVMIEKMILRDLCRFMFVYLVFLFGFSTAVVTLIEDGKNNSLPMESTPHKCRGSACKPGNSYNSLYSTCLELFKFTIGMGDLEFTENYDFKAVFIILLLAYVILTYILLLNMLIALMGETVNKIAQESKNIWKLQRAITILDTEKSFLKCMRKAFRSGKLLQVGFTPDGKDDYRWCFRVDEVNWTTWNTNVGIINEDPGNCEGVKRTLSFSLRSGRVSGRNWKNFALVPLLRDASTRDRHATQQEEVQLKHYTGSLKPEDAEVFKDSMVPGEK
Primary DRG cultures were prepared from E16 embryonic rats as described previously then plated in 15 cm Petri dishes for 4 h to remove the most adherent fibroblasts. For Ca^2+-uptake studies primary afferents neurons cultured in 96 well plates (3×10^3 cells/well), coated with poly-D lysine/collagen, which yielded both axons and dendrites bearing neurons due to neuronal growth factor supplementation in the culture medium [1]–[4]. The dendrites are large processes branching from the cell body that taper in diameter further from the cell body. The axons are a constant diameter and project over long distances from the cell body. Before the ion transport experiment, culture medium was removed and cells were washed three times. ^45Ca-uptake assays were carried out in “nominally zero Ca^2+” (i.e. 2×10^−5 M extracellular Ca^2+ ([Ca^2+]o) in 25 mM Tris-HCl buffered Hanks' balanced salt solution (pH 7.5), supplemented with 10 µM CaCl2 and 0.8 mM MgCl2medium (HCM) [1]–[4].
(§1) Vanilloid agonist inducible calcium transport was assayed in adherent cell lines ectopically expressing the C-terminally ε-tagged rat TRPV1 (3×10^4 cells/well) and primary cultures prepared from embryonic DRG, seeded in poly-D lysine/collagen coated 96 well plates. […] The previously established cell lines and standardized DRG cultures were extensively characterized for functional cell-based TRPV1 studies [1]–[4]. Immediately before the transport assay, cells were adapted to room temperature (20°C) for 5 min in HCM. ^45Ca^2+-uptake was performed for 10 min at 20°C in HCM using 0.1 µCi ^45Ca^2+ as radioactive tracer in a 100 µl final volume. To stop ^45Ca^2+-uptake, cells were rapidly changed back into 0.2 ml HCM, washed 4 additional times with 0.2 ml HCM, and then lysed in 80 µl/well RIPA buffer (50 mM Tris-HCl, pH 7.5, 150 mM NaCl, 1% Triton X-100, 0.5% deoxycholate, 0.1% SDS, 5 mM EDTA) for 30 min [1]–[4]. Aliquots of the solubilized cell extracts were mixed with 120 µl Microscint-40 and counted in a 96 well plate liquid scintillation counter (TopCount-NXT, Packard).

Assay [2] addresses T1, TRPV1. Put plainly: capsaicin-induced Ca2+-uptake in human TRPV1-HaCaT keratinocyte line. It is filed as cell-based. Set-up: expressed in transfected cells. The conditions noted are these: data not shown. The protocol: Assays were carried out in 2×10^−5 M extracellular Ca^2+ in 96 well plate formats at room temperature (22°C) for 10 min with robotic liquid handling. […] We hypothesized that calmodulin antagonists and some registered drugs may exert their blocking effect with another mechanisms on TRPV1 and not necessarily on their conventional target.
TRPV1-NIH3T3 mouse fibroblast line, ectopically expressing the rat TRPV1 was established previously.
as §1, with “To stop ^45Ca^2+-uptake, cells were rapidly changed back into 0.2 ml HCM, washed 4 additional times with 0.2 ml HCM, and then lysed in 80 µl/well RIPA buffer (50 mM Tris-HCl, pH 7.5, 150 mM NaCl, 1% Triton X-100, 0.5% deoxycholate, 0.1% SDS, 5 mM EDTA) for 30 min [1]–[4].” left out

For assay [3], the system named is intermediate Ca2+-activated K+ channels (IKCa). The conditions noted are these: human erythrocytes; cited from earlier work.
For a further assay, the system named is heat-induced tail-flick. Set-up: method as in PMID 8883861. The conditions noted are these: cited from earlier work.
In assay [4] the test system is heat evoked responses of dorsal horn neurons. Put plainly: heat-evoked responses of spinal dorsal horn neurons, microiontophoresis, extracellular single unit recording. It is filed as in vivo, rat. The procedure:
To validate in vivo efficacy of calmidazolium, experiments were carried out in a total of 22 nociceptive specific (NS) or wide dynamic range (WDR) spinal dorsal horn neurons in 16 lightly anesthetized rats. Effects of calmidazolium were studied on the heat evoked responses of dorsal horn neurons using noxious peripheral heat stimuli delivered in every 3 min in the cutaneous receptive field of the hind paw. After establishing stable baseline control responses, calmidazolium was iontophoresed (i.e. with 100 nA) from one of the barrels of the compound electrode. […] The calmidazolium evoked inhibition reached its maximum within 10 to 15 min after ejection and lasted throughout the entire recording periods (about 2 hrs) of the experiment. The monitored cells had excitatory receptive fields located on one of the hind paws. These cells usually had little spontaneous activity, located between 100–600 µm from the surface of the dorsal horn, as estimated by microdrive readings. […] Likewise to that determined previously in TRPV1-NIH3T3 cells, TRPV1-HaCaT keratinocyte lines and primary culture of nociceptive neurons, calmidazolium inhibited the ratemeter recorded signals of radiation heat pain in the rat (Fig. 7). […]

One may read the IC50 as the concentration needed to halve the response being measured. `Clc1ccc(C(c2ccc(Cl)cc2)n2cc[n+](CC(OCc3ccc(Cl)cc3Cl)c3ccc(Cl)cc3Cl)c2)cc1` (stereo not shown) [calmidazolium]: at TRPV1 [1] (DRG cultures vs TRPV1-NIH3T3 cells / other compounds (comparator unclear)), the “fold higher potency in DRG cultures” value is on record as about 3 fold. Also, the IC50 on TRPV1 [1] (rat embryonic DRG sensory neuron cultures, 2 µM capsaicin, read-out: IC50, inhibition of capsaicin-induced Ca2+-uptake) is 600 nM and ~600 nM. Further, at TRPV1 [2], the “efficacy on TRPV1 (in words)” value is “µM scale”. The “activity on IKCa channels (in words)” value in assay [3] was “inactive”. The “effect on heat-induced tail-flick latency” value with heat-induced tail-flick is reported as “inhibit”. The “heat-evoked responses, % of pre-calmidazolium baseline control” value in assay [4] (anesthetized rat, iontophoresis 100 nA, noxious peripheral heat on hind paw, mean±SD, n = 6) is 34±23%. For the same compound, the “duration of inhibition (entire recording period)” value in assay [4] (heat-evoked responses, rat) was “about 2 hrs”.

The values above are taken from paper PMC1890308, “Anti-calmodulins and Tricyclic Adjuvants in Pain Therapy Block the TRPV1 Channel” (PLoS ONE, 2007).
